Reference: US9012422B2, “Method of treating acute myelogenous leukemia” (Wake Forest University Health Sciences, priority 2011, dated 2015)
Where two headings read alike, the source gives them in different places.

How the values were obtained:
HL60 cells = test: Cell Titer-Glo viability (cytotoxicity) assay, HL60; assay type: cell-based, human; conditions: 72 hours exposure
Excerpt: (§1) We chose to use doxorubicin as the anthracycline as it is the best tolerated anthracycline in C57/Bl6 mice^11 and would allow for comparisons between in vivo and in vitro studies.

Jurkat cells = test: Cell Titer-Glo viability (cytotoxicity) assay, Jurkat; assay type: cell-based, human; conditions: 72 hours exposure
Excerpt: as §1

THP-1 cells = test: Cell Titer-Glo viability (cytotoxicity) assay, THP-1; assay type: cell-based, human; conditions: 72 hours exposure
Excerpt: as §1

K562 cells [1] = test: Cell Titer-Glo viability (cytotoxicity) assay, K562; assay type: cell-based, human; conditions: 72 hours exposure
Excerpt: as §1

KG1a cells = test: Cell Titer-Glo viability (cytotoxicity) assay, KG1a; assay type: cell-based, human; conditions: 72 hours exposure
Excerpt: as §1

[2] = tested on: murine AML cells expressing p210 BCR-ABL; test: Cytotoxicity assay of murine AML cells expressing p210 BCR-ABL; assay type: cell-based; conditions: 72 hours
Excerpt: (§2) FIG. 1. […] (B) Flow cytometry of Annexin V assay.
(§3) In addition to p53 loss, several other adverse prognostic factors are expressed in the cell lines tested. K562 cells express the fusion gene BCR-ABL that has been implicated in chemotherapy resistance^17 and prognosis in AML^18. THP-1 cells express high levels of MN1^18, shown to confer an adverse prognosis^20-21.

[3] = tested on: murine AML cells expressing human MN1; test: Cytotoxicity assay of murine AML cells expressing MN1; assay type: cell-based; conditions: 72 hours
Excerpt: as §2, §3

[4] = tested on: MFL2 cells (MLL-ENL + Flt3 ITD); test: cells; conditions: Mus musculus, read-out: IC50 MFL2
Method: (§8) Cells were grown at 37° C. with 5% CO2. Viability assays were done using the Cell Titer-Glo assay (Promega, Madison, Wis.) according to the manufacturer's protocol. All murine cells were derived from fetal liver cells infected with MLL-ENL alone or with a mutation of glycine at amino acid 12 to aspartate of NRAS (NRAS^G12D) or FLT3-ITD expressing vectors^10. Murine cells were maintained in stem cell media (40% DMEM, 40% IMDM, 20% FBS, supplemented with murine SCF to 10 ng/ml, murine IL6 to 2 ng/ml, and murine IL3 to 0.4 ng/ml).

[5] = tested on: MR2 cells (MLL-ENL + NRasG12D); test: cells; conditions: Mus musculus, read-out: IC50 MR2
Method: as §8

M1 cells (MLL-ENL alone) [6] = test: cells; conditions: Mus musculus, read-out: IC50 M1
Method: as §8

[7] = tested on: MLL-ENL- and FLT3 ITD-expressing cell line with p53-targeting shRNA; test: Cytotoxicity assay of murine AML cells with p53 knockdown; conditions: p53 shRNA vs control vector, 72 hours
Method: (A) Cytotoxicity assays of murine AML cells that knockdown p53. Cells were exposed to the indicated drugs for 72 hours and then assessed for viability. Viability is shown as percentage of control; error bars represent the standard error.
Viability assays were done using the Cell Titer-Glo assay (Promega, Madison, Wis.) according to the manufacturer's protocol. All murine cells were derived from fetal liver cells infected with MLL-ENL alone or with a mutation of glycine at amino acid 12 to aspartate of NRAS (NRAS^G12D) or FLT3-ITD expressing vectors^10. Murine cells were maintained in stem cell media (40% DMEM, 40% IMDM, 20% FBS, supplemented with murine SCF to 10 ng/ml, murine IL6 to 2 ng/ml, and murine IL3 to 0.4 ng/ml).

OCI-AML3 cells = test: Cell Titer-Glo viability (cytotoxicity) assay, OCI-AML3; assay type: cell-based, human; conditions: 72 hours exposure
Excerpt: as §1

thymidylate synthase = molecular target: T1, thymidylate synthase (Homo sapiens, UniProt P04818); test: TS catalytic activity in treated HL60 cells; assay type: cell-based; conditions: 100 nM 5-FU
T1 construct: endogenous in cells; host or cells: HL60
T1 sequence (P04818 2-313 limits assumed): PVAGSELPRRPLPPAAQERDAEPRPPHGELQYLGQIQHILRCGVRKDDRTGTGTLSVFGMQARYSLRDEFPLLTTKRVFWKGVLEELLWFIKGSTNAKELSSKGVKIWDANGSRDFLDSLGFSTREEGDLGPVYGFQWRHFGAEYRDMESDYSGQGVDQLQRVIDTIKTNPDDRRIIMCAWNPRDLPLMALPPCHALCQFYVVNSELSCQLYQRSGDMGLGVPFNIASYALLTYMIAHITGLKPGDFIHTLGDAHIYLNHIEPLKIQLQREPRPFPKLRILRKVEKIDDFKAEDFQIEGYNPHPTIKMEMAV

[8] = tested on: MFL2 cell line (MLL-ENL and FLT3 ITD) leukemia in C57/Bl6 mice; conditions: for survival compared to controls: 5-FU 121 mg/kg
Excerpt: FIG. 6. […] A) Schema of treatment trial. C57/Bl6 mice were sublethally irradiated to 4.5 Gy and injected with an MLL-ENL and Fms-like tyrosine kinase 3 internal tandem duplication (FLT3-ITD) syngeneic leukemia. […] (B) Bioluminescent image of mice on day 6 following treatment. (C) Kaplan-Meier curves for animals treated with Fd, 5-FU or AD as above.
(§4) The Wake Forest University Institutional Animal Care and Use Committee approved all mouse experiments. Luciferase-tagged leukemia cells were transplanted into 6- to 8-wk-old sublethally irradiated recipient mice (4.5 Gy) by tail-vein injection of 1×10^6 viable cells. Mice were monitored by bioluminescent imaging on day 7. Imaging was performed using an IVIS100 imaging system (Caliper LifeSciences, Hopkinton, Mass.). Mice were injected with 150 mg/kg D-Luciferin (Gold Biotechnology, St. Louis, Mo.), anesthetized with isoflurane, and imaged for 2 min. Chemotherapy was initiated upon detection of clear signals. […] Control animals were injected with PBS. Repeat luciferase imaging was performed on day 6 of treatment.
(§5) Recent studies have shown that the bone marrow microenvironment can have a profound effect on chemotherapy response in AML^24. Additionally, the immune system can affect the degree of response to a given therapy in vivo^25. […] This cell line express MLL-ENL and the mutated oncogene, NRas^G12D in conjunction with a luciferase reporter. […] This cell line expresses the FLT3 receptor with an internal tandem duplication (FLT3 ITD) in place of NRas^G12D. […] (300 mg/kg), 5-FU (121 mg/kg) or Ara-C (125 mg/kg) plus doxorubicin (3.75 mg/kg) on days 1, 3, 5, and 7 (FIG. 1A).

normal C57/Bl6 mice = test: Toxicology study, histopathology; assay type: in vivo, mouse; conditions: dosed days 1, 3, 5, 7; sacrificed three days after last treatment
Method: (§6) FIG. 7. […] Mice were treated in the same manner as the in FIG. 6; sacrificed 72 hours after the last dose; and organs were harvested, fixed, paraffin-embedded, sectioned, and stained. Slides were imaged using a Nikon Eclipse 50i light microscope, magnification as indicated. Photographs of tissues were taken using the NIS Elements D3.10 camera and software system. (B) Bone marrow transplant. […] Ly5.1+C57/Bl6 recipient mice were irradiated to 8 gray and injected with donor cells. After three weeks recipients were harvested and degree of femur engraftment by donor cells was determined by staining with Ly5.2 antibody and analyzed by flow cytometry.
(§7) Normal C57/Bl6 mice were treated with identical dose, schedule and route of each drug as in the efficacy studies (i.e. Day 1, 3, 5 and 7). 72 hours after the last dose, animals were sacrificed, bilateral femoral cells harvested and organs fixed in 10% neutral buffered formalin followed by routine tissue processing and sectioning for hematoxylin and eosin staining. Slides were then reviewed by a veterinary pathologist using a Nikon Eclipse 50i light microscope. Photographs of tissues were taken using the NIS Elements D3.10 camera and software system. […] Three weeks later recipient femoral bone marrow was harvested and stained with APC-conjugated anti-Ly5.2 antibody (BD Pharmingen, San Diego, Calif.) and analyzed by flow cytometry. […]

normal murine HSCs = conditions: mouse, in vivo
Method: as §6, §7

[9] = tested on: MLL-ENL driven murine AML cells
Method: FIG. 4. […] (A) EdU incorporation assays. MLL-ENL driven murine AML cells were incubated with the indicated drug for 8 hours and subjected to a 5-ethynl-2′ deoxyuridine (EdU) incorporation assay. S phase cells were gated as shown. Percentages shown are for cells in S phase. (B) EdU incorporation assay as in (A). Cells were infected with either a p53 targeting shRNA or a control vector and exposed to the indicated drug for 8 hours.

K562 cells [10] = conditions: 24 hours
Method: (A) Immuno-fluorescence for gamma histone H2AX (γH2AX) foci. K562 cells were treated with the indicated drug for 24 hours and then assayed for the presence of γH2AX foci. Secondary antibody was conjugated with Alexa Fluor 594 and Images were captured with an Olympus IX70 inverted fluorescent microscope equipped with a Retiga 2000R digital color camera and using an LPIanFI 20×/0.40 objective. Images were analyzed with Image Pro Plus 5.1 software.
For immunofluorescence studies of phosphorylated γH2AX, cells were fixed with 4% NBF, permeabilized with PBS containing 0.2% Triton-X 100, and probed with anti-phosphoH2AX (#2577, 1:100; Cell Signalling Technologies) followed by donkey anti-rabbit Alexa Fluor 594 conjugated antibody (1:500, A-21207; Invitrogen) and visualized via fluorescence microscopy.

THP-1 and HL60 cells = conditions: 48 hours
Method: (B) Flow cytometry of Annexin V assay. THP-1 or HL60 cells were treated with the indicated drug for 48 hours and then labeled with Annexin V and propidium iodide (PI) and analyzed by flow cytometry.
(§9) Cells were seeded in 6-well plates at 25,000 cells/ml in 3 mls, grown for 2 days and treated with the indicated drug for 16, 24, 36, or 48 hours. After centrifugation and washing in cold PBS cells were stained with PI (Sigma Aldrich, St. Louis, Mo.) and APC-conjugated Annexin V in a binding buffer (0.1 M Hepes (pH 7.4), 1.4 M NaCl, and 25 mM CaCl2 solution) (BD Pharmingen, San Jose, Calif.) according to the manufacturer's protocol. Flow cytometric analysis was conducted on a BD FACS Cantoll cytometer with the BD FACSDiva software (BD Biosciences, San Jose, Calif.).

murine AML cell lines = conditions: 24 hours
Method: FIG. 11. […] (A) Flow cytometry results of Annexin V assays. The indicated MLL-ENL driven leukemia cells were treated with drug for 24 hours analyzed by flow cytometry, as in FIG. 5. (B) MLL-ENL and neuroblastoma RAS viral oncogene homolog (NRAS) containing AML cells were exposed to the indicated drug for 24 hours and analyzed as in (A).

[11] = tested on: MR2 cell line (MLL-ENL and NRasG12D) leukemia in C57/Bl6 mice
Excerpt: FIG. 12. […] C57/Bl6 mice were sublethally irradiated to 4.5 Gy and injected with an MLL-ENL and NRAS syngeneic leukemia. […] P value was obtained by log rank test. […] P value was obtained by log rank test.
as §4, §5

[12] = tested on: MFL2 cells (MLL-ENL + Flt3 ITD); conditions: read-out: IC50 MFL2
Method: as §8

[13] = tested on: MR2 cells (MLL-ENL + NRasG12D); conditions: read-out: IC50 MR2
Method: as §8

M1 cells (MLL-ENL alone) [14] = conditions: read-out: IC50 M1
Method: as §8

[15] = tested on: murine AML cells expressing the p53 shRNA; conditions: 48 hours
Method: (B) Flow cytometry of Annexin V assay. Cells expressing the p53 short hairpin RNA (shRNA) were exposed to the indicated drug for 48 hours and then labeled with Annexin V and propidium iodide (PI).
as §9

[16] = tested on: human LSCs (K562 and HL60 cells, three primary patient samples); conditions: 24 hours drug, colonies read on or after day 7
Method: (A) Colony formation assays. Primary patient samples or cell lines were incubated with the indicated drug for 24 hours and placed in methylcellulose media. Plates were read on or after day 7. All concentrations were done in triplicate. Primary AML is the combined results of three independent primary patient samples. Colony numbers are normalized to controls and error bars represent the standard error.

[17] = molecular target: topoisomerase I cleavage complexes (Top1CC) in THP-1, Jurkat and HL60 cells (Homo sapiens, UniProt P11387); test: ICE bioassay / Top1 cleavage complex detection; conditions: 100 nM, 24 or 48 hours
Sequence of topoisomerase I cleavage complexes (Top1CC) in THP-1, Jurkat and HL60 cells (P11387 2-765 limits assumed, one chain of several): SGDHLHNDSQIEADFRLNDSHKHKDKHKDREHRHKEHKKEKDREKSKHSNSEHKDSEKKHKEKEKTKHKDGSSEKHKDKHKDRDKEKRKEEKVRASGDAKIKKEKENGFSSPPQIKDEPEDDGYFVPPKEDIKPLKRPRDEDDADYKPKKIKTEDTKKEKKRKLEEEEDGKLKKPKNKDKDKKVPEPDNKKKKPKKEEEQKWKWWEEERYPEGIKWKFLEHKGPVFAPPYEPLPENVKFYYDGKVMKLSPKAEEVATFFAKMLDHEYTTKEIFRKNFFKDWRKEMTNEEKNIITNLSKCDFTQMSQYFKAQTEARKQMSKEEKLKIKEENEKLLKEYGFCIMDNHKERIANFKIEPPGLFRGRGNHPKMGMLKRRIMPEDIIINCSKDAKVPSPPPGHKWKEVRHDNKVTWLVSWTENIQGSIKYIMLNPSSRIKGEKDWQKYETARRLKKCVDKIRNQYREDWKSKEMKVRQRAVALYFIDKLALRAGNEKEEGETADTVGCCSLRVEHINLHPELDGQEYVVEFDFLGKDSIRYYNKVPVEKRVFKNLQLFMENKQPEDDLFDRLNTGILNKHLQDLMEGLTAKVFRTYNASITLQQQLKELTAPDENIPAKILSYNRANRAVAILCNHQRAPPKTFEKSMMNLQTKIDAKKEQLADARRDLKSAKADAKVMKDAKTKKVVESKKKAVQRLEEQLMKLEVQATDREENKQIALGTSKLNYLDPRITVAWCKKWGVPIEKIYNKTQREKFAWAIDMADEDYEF
Method: (B) ICE bioassay for Top1 cleavage complexes. […] Cells were lysed and subjected to ICE bioassay (see methods), and DNA-containing fractions were blotted for Topo I. (C) Results of TS and Top1 Western blots.
Cells were plated at 1.5×10^6 cells in 100 mm^2 plates and grown in RPMI 1640 medium with 20% FBS. […] Cells were lysed in 2 ml of 1% sarkosyl in 1×TE pH 7.5 and frozen at −20° C. Samples were homogenized approximately 25 times. Addition of 1 ml of sarkosyl was used to wash the homogenizer. CsCl gradients were made as in^9. The samples were overlaid and ultracentrifuged in a SW41T rotor. Centrifugation was at 36K for 20-22 hours at 20° C. 500 ml fractions were collected. Fractions 6 through 11 were used for analysis. 200 ul of each fraction and an equal volume of 25 mM NaPO4 buffer (pH 6.5) were loaded onto a nitrocellulose membrane using a Schleicher and Schuell Minifold II slot blotter. The membrane was blocked with 5% milk in TBST. Primary antibody was added at 1:500 dilution, overnight at 4° C. Secondary antibody was used in the same manner. ECL Lightning Plus (Perkin Elmer) was used for detection of the TOP1 cleavage complex.

[18] = days 1, 3, 5 and 7, FdUMP[10] 300 mg/kg

COc1cccc2c1C(=O)c1c(O)c3c(c(O)c1C2=O)C[C@@](O)(C(=O)CO)C[C@@H]3O[C@H]1C[C@H](N)[C@H](O)[C@H](C)O1 [Doxorubicin, doxorubicin]
IC50 (HL60 cells; Homo sapiens, HL-60): 21.7 nM
IC50 (Jurkat cells; Homo sapiens, Jurkat): 75.2 nM
IC50 (THP-1 cells; Homo sapiens, THP-1): 160 nM
IC50 (K562 cells [1]; Homo sapiens, K562): 253 nM
IC50 (KG1a cells; Homo sapiens, KG-1a): 1300 nM
fold change of IC50 vs parental leukemia cells, p210 BCR-ABL [2]: 2.95 fold
fold change of IC50 vs parental leukemia cells, MN1 [3]: > 10 fold
IC50 [4]: 24.6 nM
IC50 [5]: 11.4 nM
IC50 (M1 cells (MLL-ENL alone) [6]): 3.7 nM
change in response (viability) on loss of p53 response [7]: resistance

Nc1ccn([C@@H]2O[C@H](CO)[C@@H](O)[C@@H]2O)c(=O)n1 [Cytarabine, cytarabine]
IC50 (HL60 cells; Homo sapiens, HL-60): 145 nM
IC50 (Jurkat cells; Homo sapiens, Jurkat): 15.5 nM
IC50 (THP-1 cells; Homo sapiens, THP-1): 6700 nM
IC50 (K562 cells [1]; Homo sapiens, K562): 83.7 nM
IC50 (KG1a cells; Homo sapiens, KG-1a): 196 nM
IC50 (OCI-AML3 cells; Homo sapiens, OCI-AML-3): 134 nM
IC50 [4]: 54.4 nM
IC50 [5]: 71.8 nM
IC50 (M1 cells (MLL-ENL alone) [6]): 46.8 nM

O=c1[nH]cc(F)c(=O)[nH]1 [5-FU, 5-fluorouracil]
IC50 (HL60 cells; Homo sapiens, HL-60): 5000 nM
IC50 (Jurkat cells; Homo sapiens, Jurkat): 7500 nM
IC50 (THP-1 cells; Homo sapiens, THP-1): 1200 nM
IC50 (K562 cells [1]; Homo sapiens, K562): 7000 nM
IC50 (KG1a cells; Homo sapiens, KG-1a): 5300 nM
TS inhibition (thymidylate synthase): did not significantly inhibit TS
deaths on treatment ([8]; 5-FU 121 mg/kg days 1, 3, 5, 7): early deaths
survival compared to controls [8, 18]: no survival benefit over controls
GI-tract histopathology (small and large intestine) (normal C57/Bl6 mice): severe villous blunting and fusion with crypt necrosis
bone marrow histopathology (normal C57/Bl6 mice): severe pancytopenia
engraftment of femur cells from treated donors in irradiated recipients (normal murine HSCs): only minimal engraftment
accumulation of cells in S-phase ([9]; eight hours, 5-FU at 100 times the FdUMP[10] concentration): essentially no difference in the number of cells in S-phase from control
γH2AX foci (DNA DSBs) (K562 cells [10]; 1 μM): did not result in the formation of γH2AX foci
apoptosis by Annexin V staining (THP-1 and HL60 cells; 100 nM 5-FU): only minimal annexin V positive cells
IC50 [4]: 292 nM
IC50 [5]: 214 nM

10-mer oligonucleotide of 5-fluorodeoxyuridine [FdUMP[10]]
IC50 (HL60 cells): 3.4 nM
IC50 (Jurkat cells): 5.4 nM
IC50 (THP-1 cells): 4.1 nM
IC50 (K562 cells [1]): 21.5 nM
IC50 (KG1a cells): 4.9 nM
IC50 (OCI-AML3 cells): 5.5 nM
apoptosis induction in murine AML cell lines (murine AML cell lines): efficiently induced apoptosis
survival ([11]; 300 mg/kg every other day for four doses): significant survival benefit
disease burden (bioluminescence) ([11]; 300 mg/kg on days 1 and 4): reduction in disease burden
survival vs untreated controls ([11]; 300 mg/kg on days 1 and 4): statistically significant survival benefit
survival compared to Ara/Dox treated animals ([8]; Ara-C 125 mg/kg plus doxorubicin 3.75 mg/kg, days 1, 3, 5, 7): no difference in survival
disease burden (bioluminescent imaging) [8, 18]: reduced disease burden
survival compared to controls [8, 18]: improved survival
IC50 [12]: 0.131 nM
IC50 [13]: 0.124 nM
IC50 (M1 cells (MLL-ENL alone) [14]): 0.124 nM
Annexin V binding in p53-suppressing cells [15]: positive for Annexin V binding
suppression of colony formation, cell lines and primary patient samples [16]: highly effective in suppressing colony formation
S-phase arrest in cells expressing a p53 targeting shRNA ([9]; 8 hours exposure): efficiently arrested in S-phase
accumulation of cells in S-phase ([9]; eight hours exposure): cells accumulated in S-phase
γH2AX foci (DNA DSBs) (K562 cells [10]; 10 or 100 nM): formation of multiple γH2AX foci
apoptosis by Annexin V and propidium iodide staining (THP-1 and HL60 cells; 10 or 100 nM): a majority of cells were stained positive
trapped Top1 cleavage complexes [17]: Top1 was detected co-migrating with genomic DNA
change in response (viability) on loss of p53 response [7]: no change observed
